# Experimental data: patent publication US11560400B2, “Salts of diphosphate phosphoramidate of nucleosides as anticancer compounds” (NuCana plc, priority 2017, dated 2023)
# pEC50: −log10 of the molar value. Where a name gives a salt, the structure may show the parent alone.
# Assays:
# HT29 = assay: CellTiterGlo cell viability assay, HT29; format: cell-based; conditions: Homo sapiens, HT-29, 72 h, HT29, 72 h; for pEC50: Table 4 classes, read-out: Ab EC50; for inhibition at 198 µM: percentage inhibition at the highest concentration tested, read-out: Top Inhibit
# Procedure: (§1) A subset of compounds of the invention were assayed for their cytotoxic activity in an array of different solid tumours and haematological malignancies using the following assay.
# (§2) In vitro viability assay were performed to assess the effects of compounds on cell viability in selected cell lines over 72 h using the CellTiterGlo (CTG, Promega-G7573) assay. The tests were performed in duplicates with treatment of compounds at 9 points, 3.16 folds titration in 96 well plates over ˜72 h. The compound starting concentrations were 198 μM. Cell viability assay using CellTiterGlo in 96-well plate were performed. Compound treatment 72 h, standard growth conditions, duplicates. Compounds were dissolved to 40 mM with thawed […]. Compounds were serially diluted at 3.16 fold in thawed DMSO, and warmed to 37° C. before being dissolved in media (2 μL+200 μL). After compounds were dissolved in media, media containing compounds were warmed to 37° C. in incubator and then compounds in media were added to cell plates (50 μL+50 μL) in duplicates. The compounds' final concentrations were from 198 μM to 19.8 nM. All compound solubilities were checked and recorded again, then the plates were transferred to CO2 tissue culture incubator immediately and incubated for 3 days. DMSO final concentration is 0.5%. The parent nucleoside in each case was tested as a comparator, as was an exemplary ProTide. The drugs of the ProTide class that were tested were as follows:
# (§3) The following cell lines were tested and are referred to in the Table 1 below:
# (§4) In Tables 2, 3 and 4, ‘Ab EC50’ refers to the absolute EC50 and ‘Top inhibit’ refers to the percentage inhibition achieved at the highest concentration tested.
# HepG2 = assay: CellTiterGlo cell viability assay, HepG2; format: cell-based; conditions: Homo sapiens, HepG2, 72 h; for pEC50: Table 4 classes, read-out: Ab EC50; for inhibition at 198 µM: percentage inhibition at the highest concentration tested, read-out: Top Inhibit
# Procedure: as §1, §2, §3, §4
# OVCAR 3 = assay: CellTiterGlo cell viability assay, OVCAR 3; format: cell-based; conditions: Homo sapiens; for inhibition at 198 µM: OVCAR-3, 72 h, percentage inhibition at the highest concentration tested, read-out: Top Inhibit; for pEC50: OVCAR 3, 72 h, Table 4 classes, read-out: Ab EC50
# Procedure: as §1, §2, §3, §4
# MCF-7 = assay: CellTiterGlo cell viability assay, MCF-7; format: cell-based; conditions: Homo sapiens, MCF7, 72 h, MCF-7, 72 h, percentage inhibition at the highest concentration tested; read-out: Top Inhibit
# Procedure: as §1, §2, §3, §4
# CCRF-CEM = assay: CellTiterGlo cell viability assay, CCRF-CEM; format: cell-based; conditions: Homo sapiens, 72 h; for pEC50: Table 4 classes, read-out: Ab EC50; for inhibition at 198 µM: percentage inhibition at the highest concentration tested, read-out: Top Inh
# Procedure: as §1, §2, §3, §4
# MOLT-4 = assay: CellTiterGlo cell viability assay, MOLT-4; format: cell-based; conditions: Homo sapiens, MOLT-4, 72 h; for inhibition at 198 µM: percentage inhibition at the highest concentration tested, read-out: Top Inh; for pEC50: Table 4 classes, read-out: Ab EC50
# Procedure: as §1, §2, §3, §4
# K562 = assay: CellTiterGlo cell viability assay, K562; format: cell-based; conditions: Homo sapiens; for inhibition at 198 µM: K562, 72 h, percentage inhibition at the highest concentration tested, read-out: Top Inh; for pEC50: K562, K 562, 72 h, Table 4 classes, read-out: Ab EC50
# Procedure: as §1, §2, §3, §4
# HL-60 = assay: CellTiterGlo cell viability assay, HL-60; format: cell-based; conditions: Homo sapiens, HL-60, 72 h; for pEC50: Table 4 classes, read-out: Ab EC50; for inhibition at 198 µM: percentage inhibition at the highest concentration tested, read-out: Top Inh
# Procedure: as §1, §2, §3, §4
# RL = assay: CellTiterGlo cell viability assay, RL; format: cell-based; conditions: Homo sapiens, 72 h; for inhibition at 198 µM: percentage inhibition at the highest concentration tested, read-out: Top Inh; for pEC50: Table 4 classes, read-out: Ab EC50
# Procedure: as §1, §2, §3, §4
# RPMI-8226 = assay: CellTiterGlo cell viability assay, RPMI-8226; format: cell-based, Human; conditions: Homo sapiens, RPMI-8226, 72 h; for pEC50: Table 4 classes, read-out: Ab EC50; for inhibition at 198 µM: percentage inhibition at the highest concentration tested, read-out: Top Inh
# Procedure: as §1, §2, §3, §4
# KG-1 = assay: CellTiterGlo cell viability assay, KG-1; format: cell-based; conditions: Homo sapiens, KG-1, 72 h; for pEC50: Table 4 classes, read-out: Ab EC50; for inhibition at 198 µM: percentage inhibition at the highest concentration tested, read-out: Top Inhibit
# Procedure: as §1, §2, §3, §4
SMILES,pEC50 (HT29),inhibition at 198 µM (HT29),pEC50 (HepG2),inhibition at 198 µM (HepG2),inhibition at 198 µM (OVCAR 3),pEC50 (OVCAR 3),inhibition at 198 µM (MCF-7),pEC50 (CCRF-CEM),inhibition at 198 µM (CCRF-CEM),inhibition at 198 µM (MOLT-4),pEC50 (MOLT-4),inhibition at 198 µM (K562),pEC50 (K562),pEC50 (HL-60),inhibition at 198 µM (HL-60),inhibition at 198 µM (RL),pEC50 (RPMI-8226),inhibition at 198 µM (RPMI-8226),pEC50 (KG-1),inhibition at 198 µM (KG-1),further results
"CCCCCCOC(=O)[C@H](C)NP(=O)(Oc1ccccc1)OP(=O)(O)OC[C@H]1O[C@@H](n2cnc3c(N)nc(Cl)nc32)[C@H](F)C1O (stereo partly drawn) [Example 18, 2-Chloro-9-(2′-Deoxy-2′-fluoro-β-D-arabinofuranosyl)adenine-5′-O-[1-phenyl(hexoxy-L-alaninyl)] Diphosphate Triethylammonium Salt]",6.00 to 6.70,66%,6.00 to 6.70,53%,47%,< 5.00,44%,> 6.70,99%,88%,> 6.70,40%,< 5.00,> 6.70,96%,48%,< 5.00,84%,> 6.70,91%,–
"C[C@H](NP(=O)(Oc1cccc2c1CCCC2)OP(=O)(O)OC[C@H]1O[C@@H](n2cnc3c(N)nc(Cl)nc32)[C@H](F)C1O)C(=O)OCc1ccccc1 (stereo partly drawn) [Example 19, 2-Chloro-9-(2′-Deoxy-2′-fluoro-β-D-arabinofuranosyl)adenine-5′-O-[1-5,6,7,8-tetrahydro-1-naphthyl(benzoxy-L-alaninyl)] Diphosphate Triethylammonium Salt]",6.00 to 6.70,68%,6.00 to 6.70,51%,51%,< 5.00,47%,> 6.70,99%,90%,> 6.70,37%,< 5.00,> 6.70,95%,57%,< 5.00,79%,> 6.70,92%,pEC50 (RL): 6.00 to 6.70
"CCOP(=O)(N[C@@H](C)C(=O)OCc1ccccc1)OP(=O)(O)OC[C@H]1O[C@@H](n2cnc3c(N)nc(Cl)nc32)[C@H](F)C1O (stereo partly drawn) [Example 20, 2-Chloro-9-(2′-Deoxy-2′-fluoro-β-D-arabinofuranosyl)adenine-5′-O-[1-ethyl(benzoxy-L-alaninyl)] Diphosphate Triethylammonium Salt]",6.00 to 6.70,69%,6.00 to 6.70,54%,49%,< 5.00,48%,> 6.70,99%,89%,> 6.70,35%,< 5.00,> 6.70,96%,69%,< 5.00,80%,> 6.70,92%,pEC50 (RL): 6.00 to 6.70
"CC(C)C[C@H](NP(=O)(Oc1ccccc1)OP(=O)(O)OC[C@H]1O[C@@H](n2cnc3c(N)nc(Cl)nc32)[C@H](F)C1O)C(=O)OCc1ccccc1 (stereo partly drawn) [Example 21, 2-Chloro-9-(2′-Deoxy-2′-fluoro-β-D-arabinofuranosyl)adenine-5′-O-[1-phenyl(benzoxy-L-leucinyl)] Diphosphate Triethylammonium Salt]",6.00 to 6.70,69%,6.00 to 6.70,53%,47%,< 5.00,49%,> 6.70,99%,90%,> 6.70,32%,< 5.00,> 6.70,96%,70%,< 5.00,81%,> 6.70,92%,pEC50 (RL): 5.30 to 6.00
